Source: patent US10689377B2 (Mirati Therapeutics, Inc., priority 2017, dated 2020)
Like-named read-outs stand apart in the source and are kept apart here.

How the values were obtained:
KRas G12C [1] = target: KRas G12C (Homo sapiens, UniProt P01116, C118S/C51S/C80L/G12C); assay: KRas G12C Modification Assay (LCMS detection of covalent adduct); assay type: binding
Description: A 10 μL aliquot of each protein solution was then transferred to a 384 well microtiter plate. Initial compound stocks were generated at fifty times their desired final assay concentration in DMSO.
Exemplary compounds of Formula (I) were diluted 25-fold into K-Ras Assay Buffer to a final of two times their final concentration. A 10 μL aliquot of each diluted compound solution was then added to each of the protein solutions in the microtiter plate to initiate reaction. […] At each time point, the reactions were quenched with 20 μL of a 25 mM acetic acid solution. […] Once all reactions were quenched, the plates were heat sealed and the samples were injected into a LC/MS system for data acquisition.
Samples were injected in their liquid phase onto a C-3 reverse phase column to remove assay buffer and prepare the samples for mass spectrometer. The proteins were eluted from the column using an acetonitrile gradient and fed directly into the mass analyzer. Initial raw data analysis took place in Agilent MassHunter software immediately post data acquisition.
Raw data analysis of the intact protein was exclusively a deconvolution of the multiple charge states of each protein in solution using a maximum entropy deconvolution provided in Mass Hunter. To minimize complexity, only the data over limited mass ranges were considered for analysis, with a minimum of one Dalton mass step intervals. The heights of all masses identified during raw data analysis were exported to be further analyzed in Spotfire® data analysis software.
Final data analysis was a multistep process in the Spotfire® data analysis software package. Briefly, each protein mass was calculated as a percent of the total signal of that sample, that percentage was then normalized to the percentage of signal of the protein in the absence of reactive compounds. Those normalized signals were reported as normalized percent of control (POC). […] Key: “A”≤25% POC; “B”>25% POC-≤50% POC; “C”>50% POC and ND=not determined.

KRas G12C [2] = target: KRas G12C (Homo sapiens, UniProt P01116, G12C); assay: Cellular inhibition of KRas G12C measured by Phospho-ERK in NCI-H358 cells; assay type: cell-based
Summary of the method: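 Readout is pERK(Thr202/Tyr204) immunofluorescence normalized to GAPDH, expressed as percent of DMSO control and fitted with a 4-parameter curve for IC50. Attached NCI-H358 cells received compound for 3 hours in 0.5% DMSO, followed by fixation and methanol permeabilization.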

[3] = normalized percent of control, 5 μM concentration for 3 hours
[4] = pERK(Thr202/Tyr204) normalized with GAPDH, NCI-H358 cells, 3 hours, read-out: IC50

For `C=CC(=O)N1CCN(c2nc(O[C@H](C)CN(C)CC)nc3c2CCN(c2cc(O)cc4ccccc24)C3)CC1` [Example 131, 1-[4-[2-[(1R)-2-[ethyl(methyl)amino]-1-methyl-ethoxy]-7-(3-hydroxy-1-naphthyl)-6,8-dihydro-5H-pyrido[3,4-d]pyrimidin-4-yl]piperazin-1-yl]prop-2-en-1-one], which POC (KRas G12C [1]; [3]) is on record?
Its POC is “C (“C”>50% POC)”.

What about the IC50 (KRas G12C [2]; [4]) of the same molecule?
The IC50 was 0.1 to 1000 nM.

Which results are given for `C=CC(=O)N1CCN(c2nc(OC[C@@H]3CCCN3C)nc3c2CCN(c2cccc4ccccc24)C3)CC1CC#N` (stereo partly drawn) [Example 147, 2-[4-[2-[[(2S)-1-methylpyrrolidin-2-yl]methoxy]-7-(1-naphthyl)-6,8-dihydro-5H-pyrido[3,4-d]pyrimidin-4-yl]-1-prop-2-enoyl-piperazin-2-yl]acetonitrile]?
POC (KRas G12C [1]; [3]): C (“C”>50% POC); IC50 (KRas G12C [2]; [4]): 0.1 to 1000 nM

For `C=CC(=O)N1CCN(c2nc(OC[C@@H]3CCCN3C)nc3c2CCN(c2c(C)ccc4[nH]ncc24)C3)CC1CC#N` (stereo partly drawn) [Example 148, 2-[4-[7-(5-methyl-1H-indazol-4-yl)-2-[[(2S)-1-methylpyrrolidin-2-yl]methoxy]-6,8-dihydro-5H-pyrido[3,4-d]pyrimidin-4-yl]-1-prop-2-enoyl-piperazin-2-yl]acetonitrile], which POC (KRas G12C [1]; [3]) is on record?
Its POC is “C (“C”>50% POC)”.

And the IC50 (KRas G12C [2]; [4])?
Its IC50 is 0.1 to 1000 nM.

What does the source list for `C=CC(=O)N1CCN(c2nc(OC[C@@H]3CCCN3C)nc3c2CCN(c2c(C(F)(F)F)ccc4[nH]ncc24)C3)CC1CC#N` (stereo partly drawn) [Example 149, 2-[4-[2-[[(2S)-1-methylpyrrolidin-2-yl]methoxy]-7-[5-(trifluoromethyl)-1H-indazol-4-yl]-6,8-dihydro-5H-pyrido[3,4-d]pyrimidin-4-yl]-1-prop-2-enoyl-piperazin-2-yl]acetonitrile]?
POC (KRas G12C [1]; [3]): B (“B”>25% POC-≤50% POC); IC50 (KRas G12C [2]; [4]): 0.1 to 1000 nM

For `C=CC(=O)N1CCN(c2nc(OC[C@@H]3CCCN3C)nc3c2CCN(c2c(C)ccc4[nH]ncc24)C3)CC1` [Example 155, (S)-1-(4-(7-(5-methyl-1H-indazol-4-yl)-2-((1-methylpyrrolidin-2-yl)methoxy)-5,6,7,8-tetrahydropyrido[3,4-d]pyrimidin-4-yl)piperazin-1-yl)prop-2-en-1-one], which POC (KRas G12C [1]; 5 µM) is on record?
The POC was “C (key: “A”≤25% POC; “B”>25% POC-≤50% POC; “C”>50% POC)”.

And the IC50 (KRas G12C [2]; [4])?
The IC50 was 0.1 to 1000 nM.

With `C=CC(=O)N1CCN(c2nc(OC[C@@H]3CCCN3C)nc3c2CCN(c2ccccc2C(C)C)C3)CC1` [Example 158, 1-[4-[7-(2-isopropylphenyl)-2-[[(2S)-1-methylpyrrolidin-2-yl]methoxy]-6,8-dihydro-5H-pyrido[3,4-d]pyrimidin-4-yl]piperazin-1-yl]prop-2-en-1-one] as the molecule, how does the POC (KRas G12C [1]; [3]) read?
The POC was “C (“C”>50% POC)”.

And the IC50 (KRas G12C [2]; [4])?
Its IC50 is > 1000 nM.

For `C=CC(=O)N1CCN(c2nc(OCCCN3CCOCC3)nc3c2CCN(c2c(F)c(O)cc4ccccc24)C3)CC1` [Example 165, 1-[4-[7-(2-fluoro-3-hydroxy-1-naphthyl)-2-(3-morpholinopropoxy)-6,8-dihydro-5H-pyrido[3,4-d]pyrimidin-4-yl]piperazin-1-yl]prop-2-en-1-one], which POC (KRas G12C [1]; 5 µM) is on record?
The POC was “C (key: “A”≤25% POC; “B”>25% POC-≤50% POC; “C”>50% POC)”.

And the IC50 (KRas G12C [2]; [4])?
Its IC50 is > 1000 nM.

`C=CC(=O)N1CCN(c2nc(OCCCN3CCOCC3)nc3c2CCN(c2cc(O)cc4sc(C)nc24)C3)CC1` [Example 166, 1-[4-[7-(6-hydroxy-2-methyl-1,3-benzothiazol-4-yl)-2-(3-morpholinopropoxy)-6,8-dihydro-5H-pyrido[3,4-d]pyrimidin-4-yl]piperazin-1-yl]prop-2-en-1-one] was tested. Which POC (KRas G12C [1]; 5 µM) did it give?
The POC was “B (key: “A”≤25% POC; “B”>25% POC-≤50% POC; “C”>50% POC)”.

And the IC50 (KRas G12C [2]; [4])?
The IC50 was > 1000 nM.

`C=CC(=O)N1CCN(c2nc(OCCCN3CCOCC3)nc3c2CCN(c2cc(O)cc4cc(C)[nH]c24)C3)CC1` [Example 167, 1-(4-(7-(5-hydroxy-2-methyl-1H-indol-7-yl)-2-(3-morpholinopropoxy)-5,6,7,8-tetrahydropyrido[3,4-d]pyrimidin-4-yl)piperazin-1-yl)prop-2-en-1-one] was tested. Which POC (KRas G12C [1]; [3]) did it give?
The POC was “B (“B”>25% POC-≤50% POC)”.

What about the IC50 (KRas G12C [2]; [4]) of the same molecule?
Its IC50 is > 1000 nM.

Which POC (KRas G12C [1]; 5 µM) does the source give for `C=CC(=O)N1CCN(c2nc(OCCN(C)C)nc3c2CCN(c2cc(O)cc4ccccc24)C3)CC1CCO` (stereo not drawn) [Example 171, 1-(4-(2-(2-(dimethylamino)ethoxy)-7-(3-hydroxynaphthalen-1-yl)-5,6,7,8-tetrahydropyrido[3,4-d]pyrimidin-4-yl)-2-(2-hydroxyethyl)piperazin-1-yl)prop-2-en-1-one] here?
Its POC is “C (key: “A”≤25% POC; “B”>25% POC-≤50% POC; “C”>50% POC)”.

What about the IC50 (KRas G12C [2]; IC50) of the same molecule?
The IC50 was > 1000 nM.

Which POC (KRas G12C [1]; [3]) does the source give for `C=CC(=O)N1CCN(c2nc(OCCCN3CCOCC3)nc3c2CCN(c2c(C)c(O)cc4ccccc24)C3)CC1` [Example 173, 1-(4-(7-(3-hydroxy-2-methylnaphthalen-1-yl)-2-(3-morpholinopropoxy)-5,6,7,8-tetrahydropyrido[3,4-d]pyrimidin-4-yl)piperazin-1-yl)prop-2-en-1-one] here?
The POC was “C (“C”>50% POC)”.

What about the IC50 (KRas G12C [2]; [4]) of the same molecule?
Its IC50 is > 1000 nM.

Which results are given for `C=CC(=O)N1CCN(c2nc(OC[C@@H]3CCCN3C)nc3c2CCN(c2c(C)c(O)cc4ccccc24)C3)CC1` [Example 175, (S)-1-(4-(7-(3-hydroxy-2-methylnaphthalen-1-yl)-2-((1-methylpyrrolidin-2-yl)methoxy)-5,6,7,8-tetrahydropyrido[3,4-d]pyrimidin-4-yl)piperazin-1-yl)prop-2-en-1-one]?
POC (KRas G12C [1]; [3]): C (“C”>50% POC); IC50 (KRas G12C [2]; [4]): 0.1 to 1000 nM

`C=CC(=O)N1CCN(c2nc(OC[C@@H]3CCN(C)C3)nc3c2CCN(c2cccc4ccccc24)C3)CC1CC#N` (stereo partly drawn) [Example 177, 2-[4-[2-[[(3R)-1-methylpyrrolidin-3-yl]methoxy]-7-(1-naphthyl)-6,8-dihydro-5H-pyrido[3,4-d]pyrimidin-4-yl]-1-prop-2-enoyl-piperazin-2-yl]acetonitrile] was tested. Which POC (KRas G12C [1]; [3]) did it give?
Its POC is “C (“C”>50% POC)”.

And the IC50 (KRas G12C [2]; [4])?
The IC50 was 0.1 to 1000 nM.

How did the IC50 (KRas G12C [2]; [4]) turn out when `Cc1cc2[nH]ncc2c(N2CCc3c(nc(OC[C@@H]4CC(F)(F)CN4C)nc3N3CCN(C(=O)/C=C/CF)[C@@H](CC#N)C3)C2)c1C` [Example 614, 2-((S)-4-(2-(((S)-4,4-difluoro-1-methylpyrrolidin-2-yl)methoxy)-7-(5,6-dimethyl-1H-indazol-4-yl)-5,6,7,8-tetrahydropyrido[3,4-d]pyrimidin-4-yl)-1-((E)-4-fluorobut-2-enoyl)piperazin-2-yl)acetonitrile] was run?
Its IC50 is 0.1 to 1000 nM.

With `C=C(F)C(=O)N1CCN(c2nc(OC[C@@H]3CC(C)(C)CN3C)nc3c2CCN(c2cccc4cccc(C)c24)C3)C[C@@H]1CC#N` [Example 615, 2-[(2S)-1-(2-fluoroprop-2-enoyl)-4-[7-(8-methyl-1-naphthyl)-2-[[(2S)-1,4,4-trimethylpyrrolidin-2-yl]methoxy]-6,8-dihydro-5H-pyrido[3,4-d]pyrimidin-4-yl]piperazin-2-yl]acetonitrile] as the molecule, how does the IC50 (KRas G12C [2]; [4]) read?
Its IC50 is 0.1 to 1000 nM.

How did the IC50 (KRas G12C [2]; [4]) turn out when `C=C(F)C(=O)N1CCN(c2nc(OC[C@@H]3C[C@H](C)CN3C)nc3c2CCN(c2cccc4cccc(C)c24)C3)C[C@@H]1CC#N` [Example 616, 2-[(2S)-4-[2-[[(2S,4S)-1,4-dimethylpyrrolidin-2-yl]methoxy]-7-(8-methyl-1-naphthyl)-6,8-dihydro-5H-pyrido[3,4-d]pyrimidin-4-yl]-1-(2-fluoroprop-2-enoyl)piperazin-2-yl]acetonitrile] was run?
The IC50 was 0.1 to 1000 nM.

Which IC50 (KRas G12C [2]; [4]) does the source give for `C=C(F)C(=O)N1CCN(c2nc(OC[C@@H]3CCCN3C)nc3c2CCN(c2c(C)ncc4ccccc24)C3)C[C@@H]1CC#N` [Example 617] here?
The IC50 was > 1000 nM.

For `C=C(F)C(=O)N1CCN(c2nc(OC[C@@H]3CCCN3C)nc3c2CCN(c2cncc4cc(F)ccc24)C3)C[C@@H]1CC#N` [Example 618, 2-[(2S)-4-[7-(7-fluoro-4-isoquinolyl)-2-[[(2S)-1-methylpyrrolidin-2-yl]methoxy]-6,8-dihydro-5H-pyrido[3,4-d]pyrimidin-4-yl]-1-(2-fluoroprop-2-enoyl)piperazin-2-yl]acetonitrile], which IC50 (KRas G12C [2]; [4]) is on record?
Its IC50 is > 1000 nM.

How did the IC50 (KRas G12C [2]; [4]) turn out when `C=C(F)C(=O)N1CCN(c2nc(OC[C@@H]3CCCN3C)nc3c2CCN(c2cncc4cccc(C)c24)C3)C[C@@H]1CC#N` [Example 619, 2-[(2S)-1-(2-fluoroprop-2-enoyl)-4-[7-(5-methyl-4-isoquinolyl)-2-[[(2S)-1-methylpyrrolidin-2-yl]methoxy]-6,8-dihydro-5H-pyrido[3,4-d]pyrimidin-4-yl]piperazin-2-yl]acetonitrile] was run?
Its IC50 is 0.1 to 1000 nM.

For `C=C(F)C(=O)N1CCN(c2nc(OC[C@@H]3CCCN3C)nc3c2CCN(c2cccc4cccc(Cl)c24)C3)[C@@H](C(F)F)C1` [Example 621, 1-[(3R)-4-[7-(8-chloro-1-naphthyl)-2-[[(2S)-1-methylpyrrolidin-2-yl]methoxy]-6,8-dihydro-5H-pyrido[3,4-d]pyrimidin-4-yl]-3-(difluoromethyl)piperazin-1-yl]-2-fluoro-prop-2-en-1-one], which IC50 (KRas G12C [2]; [4]) is on record?
Its IC50 is > 1000 nM.
